Source: ChEMBL document CHEMBL2074007, “Characterization of the transport of nucleoside analog drugs by the human multidrug resistance proteins MRP4 and MRP5” (Mol Pharmacol, 2003)

Legend:
MRP5 (ABCC5) = MRP5 (ABCC5) (Homo sapiens, UniProt O15440); experiment: TP_TRANSPORTER: inhibition of alaninyl-d4TMP uptake (alaninyl-d4TMP: 1 uM, Zaprinast: 100uM) in MRP5-expressing HEK293 cells; assay type: functional, cell-based; design: scale not given: the % may be the effect or the level left; settings: probe alaninyl-d4TMP (1 uM), read-out: Activity
MRP4 (ABCC4) = molecular target: T1, MRP4 (ABCC4) (Homo sapiens, UniProt O15439); experiment: TP_TRANSPORTER: inhibition of E217betaG uptake (E217betaG: 30 uM, Zaprinast: 100uM) in MRP4-expressing HEK293 cells; assay type: functional, cell-based; design: scale not given: the % may be the effect or the level left; settings: probe E217betaG (30 uM), read-out: Activity
T1 sequence (O15439 whole entry): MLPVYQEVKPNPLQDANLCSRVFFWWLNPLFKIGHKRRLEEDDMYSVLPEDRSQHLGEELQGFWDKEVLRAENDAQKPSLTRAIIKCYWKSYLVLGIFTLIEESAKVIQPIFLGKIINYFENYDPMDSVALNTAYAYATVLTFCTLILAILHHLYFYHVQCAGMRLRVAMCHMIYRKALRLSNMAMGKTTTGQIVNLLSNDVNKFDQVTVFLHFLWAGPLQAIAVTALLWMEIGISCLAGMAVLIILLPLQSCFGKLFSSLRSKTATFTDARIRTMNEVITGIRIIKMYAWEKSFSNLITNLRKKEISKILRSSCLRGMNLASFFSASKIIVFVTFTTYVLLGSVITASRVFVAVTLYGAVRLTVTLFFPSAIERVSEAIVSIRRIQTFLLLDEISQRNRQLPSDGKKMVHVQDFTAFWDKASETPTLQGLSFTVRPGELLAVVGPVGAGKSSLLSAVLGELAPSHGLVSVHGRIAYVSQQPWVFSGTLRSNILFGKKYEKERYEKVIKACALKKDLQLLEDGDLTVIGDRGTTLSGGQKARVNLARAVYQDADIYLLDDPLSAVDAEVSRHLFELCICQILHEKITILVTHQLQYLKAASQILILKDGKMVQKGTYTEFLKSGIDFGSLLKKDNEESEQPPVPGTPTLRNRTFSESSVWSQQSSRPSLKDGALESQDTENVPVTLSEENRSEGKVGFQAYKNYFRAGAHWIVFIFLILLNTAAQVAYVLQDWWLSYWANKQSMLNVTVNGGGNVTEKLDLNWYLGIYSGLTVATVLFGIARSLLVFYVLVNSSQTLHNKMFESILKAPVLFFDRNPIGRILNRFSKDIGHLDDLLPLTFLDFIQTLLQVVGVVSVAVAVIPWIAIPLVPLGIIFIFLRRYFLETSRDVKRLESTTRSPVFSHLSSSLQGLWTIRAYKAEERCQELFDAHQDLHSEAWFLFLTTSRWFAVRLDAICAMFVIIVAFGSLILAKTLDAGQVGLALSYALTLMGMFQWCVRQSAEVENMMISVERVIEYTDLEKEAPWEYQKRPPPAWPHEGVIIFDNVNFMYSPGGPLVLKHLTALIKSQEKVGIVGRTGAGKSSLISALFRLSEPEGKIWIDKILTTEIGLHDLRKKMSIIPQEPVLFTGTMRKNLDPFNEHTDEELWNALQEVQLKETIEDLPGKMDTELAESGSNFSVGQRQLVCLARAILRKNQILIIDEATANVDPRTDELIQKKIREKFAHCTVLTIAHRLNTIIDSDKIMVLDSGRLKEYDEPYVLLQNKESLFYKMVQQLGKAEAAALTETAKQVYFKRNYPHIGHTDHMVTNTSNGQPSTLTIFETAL

[1] = molecular target: T2, ATP-binding cassette sub-family C member 4 (Homo sapiens, UniProt O15439); assay type: functional, cell-based, HEK293
T2 sequence (O15439 whole entry): T1 sequence (O15439 whole entry)

[2] = molecular target: ATP-binding cassette sub-family C member 5 (Homo sapiens, UniProt O15440); assay type: functional, cell-based, HEK293
Sequence of ATP-binding cassette sub-family C member 5 (O15440 whole entry): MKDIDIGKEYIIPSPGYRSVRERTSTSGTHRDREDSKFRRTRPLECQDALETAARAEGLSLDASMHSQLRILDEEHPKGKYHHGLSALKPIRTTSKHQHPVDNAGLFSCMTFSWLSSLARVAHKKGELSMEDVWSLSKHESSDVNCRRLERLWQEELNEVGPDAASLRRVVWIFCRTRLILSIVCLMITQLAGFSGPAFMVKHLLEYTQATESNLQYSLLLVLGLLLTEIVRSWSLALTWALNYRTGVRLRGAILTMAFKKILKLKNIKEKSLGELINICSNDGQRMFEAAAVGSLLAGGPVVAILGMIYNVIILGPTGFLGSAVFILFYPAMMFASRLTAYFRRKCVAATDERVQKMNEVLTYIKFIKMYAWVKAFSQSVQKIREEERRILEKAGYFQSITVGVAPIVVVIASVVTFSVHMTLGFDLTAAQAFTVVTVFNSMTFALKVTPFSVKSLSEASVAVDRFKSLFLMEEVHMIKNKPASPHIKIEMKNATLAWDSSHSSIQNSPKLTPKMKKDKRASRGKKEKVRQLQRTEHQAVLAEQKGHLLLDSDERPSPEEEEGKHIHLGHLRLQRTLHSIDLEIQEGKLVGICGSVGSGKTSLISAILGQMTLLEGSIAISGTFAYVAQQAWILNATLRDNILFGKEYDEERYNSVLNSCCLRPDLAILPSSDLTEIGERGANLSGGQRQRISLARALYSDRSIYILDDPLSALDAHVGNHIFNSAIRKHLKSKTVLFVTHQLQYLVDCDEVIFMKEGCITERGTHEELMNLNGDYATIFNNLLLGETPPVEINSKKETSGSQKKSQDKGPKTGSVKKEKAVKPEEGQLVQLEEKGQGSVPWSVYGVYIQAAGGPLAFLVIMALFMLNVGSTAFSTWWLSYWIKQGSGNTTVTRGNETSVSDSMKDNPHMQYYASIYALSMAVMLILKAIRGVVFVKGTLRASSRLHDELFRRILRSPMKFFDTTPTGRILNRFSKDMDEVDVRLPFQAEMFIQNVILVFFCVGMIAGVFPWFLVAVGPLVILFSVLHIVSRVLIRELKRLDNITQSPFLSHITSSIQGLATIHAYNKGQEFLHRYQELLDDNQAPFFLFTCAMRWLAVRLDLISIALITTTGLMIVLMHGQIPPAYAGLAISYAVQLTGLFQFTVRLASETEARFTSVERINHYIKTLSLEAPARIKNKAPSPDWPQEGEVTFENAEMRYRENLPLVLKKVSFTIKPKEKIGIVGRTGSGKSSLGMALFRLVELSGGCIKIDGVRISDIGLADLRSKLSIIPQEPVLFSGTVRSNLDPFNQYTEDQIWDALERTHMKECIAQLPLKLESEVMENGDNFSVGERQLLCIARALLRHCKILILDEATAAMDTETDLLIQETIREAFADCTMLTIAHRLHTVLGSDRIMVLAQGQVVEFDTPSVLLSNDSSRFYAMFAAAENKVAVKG

Sequence of MRP5 (ABCC5) (O15440 whole entry): as above

SMILES | activity at 100 µM (MRP5 (ABCC5)) | activity at 100 µM (MRP4 (ABCC4)) | IC50 [1] | IC50 [2]
Nc1nc2c(ncn2[C@@H]2O[C@@H]3COP(=O)(O)O[C@H]3[C@H]2O)c(=O)[nH]1 | 37% | 48% |  | 
COc1cc(C(=O)OCCCN2CCCN(CCCOC(=O)c3cc(OC)c(OC)c(OC)c3)CC2)cc(OC)c1OC [DILAZEP] |  |  | 20 µM | > 50 µM
CN(C)C(=O)CCSC(SCCC(=O)O)c1cccc(/C=C/c2ccc3ccc(Cl)cc3n2)c1 (stereo not given) [MK-571] |  |  |  | 40 µM
O=[N+]([O-])c1ccc(CSc2ncnc3c2ncn3[C@@H]2O[C@H](CO)[C@@H](O)[C@H]2O)cc1 [NITROBENZYLMERCAPTOPURINE RIBONUCLEOSIDE] |  |  | 75 µM | 

The next lines start with the values.

activity at 100 µM (MRP5 (ABCC5)) | activity at 100 µM (MRP4 (ABCC4)) | IC50 [1] | IC50 [2] | SMILES
 |  | 10 µM | 30 µM | COc1cc2c(cc1OC)-c1c/c(=N\c3c(C)cc(C)cc3C)n(C)c(=O)n1CC2 [TREQUINSIN]
12% | 7% |  |  | CCCOc1ccccc1-c1nc2nn[nH]c2c(=O)[nH]1 [ZAPRINAST]
